Experimental data reported in patent US9585975B2, “MRI contrast agents” (NORTHWESTERN UNIVERSITY, priority 2012, dated 2017).
“And” between values parts separate entries of the source, which are not always exact repeats. Equal values may be shown once. Read-outs that look alike come from different tables or passages of the source.

What was measured:
[1] = system: HaloTag protein; conditions: 37° C.
Description: The HaloTag protein was expressed recombinantly after subcloning the target protein into the vector pMCSG7 to include an N-terminal His6-Tag followed by a TEV protease cleavage site. The protein was expressed in BL21(DE3) cells and purified by Nickel affinity chromatography. […] The HaloTag protein was labeled with a 5-fold molar excess of the Gd(III) complex at 4 degrees C. overnight. […] The labeled proteins were concentrated to a starting concentration of ˜600 μM for all relaxivity analyses.
Longitudinal relaxivities of the unbound agents were determined in water and the protein-bound contrast agents in 10 mM MOPS at 1.5 T, 37_C (Table 1).
To prepare the protein-bound contrast agent 12.5 mg protein was incubated overnight at 4° C. with five equivalents haloalkane label. Excess label was removed by size-exclusion chromatography (Econo-Pac 10 DG Disposable Chromatography Columns) and dialysis overnight into 10 mM MOPS, pH 7.4 (Spectrum Spectra/Por 4 Dialysis Membrane Tubing 12-14K MWCO) at 4° C. The protein-bound contrast agent was concentrated to a starting concentration of ˜600 μM for all relaxivity assays (Amicon Ultra-4, PLGC Ultracel-PL Membrane, 10 kDa). Agent binding was detected by mass spectrometry (Agilent 6510 Accurate-Mass Q-TOF LC/MS) and data deconvolution was performed with the included software (Agilent MassHunter Qualitative Analysis).
The relaxation rates and Gd(III) concentrations were determined for contrast agent solutions in a range of concentrations. The relaxation rates of small molecule contrast agents were investigated using a 4 mM starting solution in water and diluted 1:1 four times. Relaxation rates of protein bound contrast agents were measured using 600 μM starting solution in 10 mM MOPS and was diluted 1:1 four times. Relaxation rates were determined using a 60 MHz (1.5 T) NMR analyzer (Bruker Minispec MQ60) at 37° C. using 500 μL in a 7.5 mm inner diameter NMR tubes. T1 relaxation times were determined using monoexponential curve fitting and an inversion recovery pulse sequence with four averages for each of 10 data points.
Gd(III) concentrations for all samples were measured by ICP-MS. Samples were prepared by dissolving 10 μL into 90 μL trace nitric acid, and diluted to 10 mL with ultrapure water (nitric acid was added to generate a 3% solution. Samples contained a multi-element internal standard consisting of 5 ppb each Bi, Ho, In, Li(6), Sc, Tb, and Y (Spex Certiprep, Metuchen, N.J., USA). ICP-MS was performed on a computer-controlled (Plasmalab software) Thermo X series II ICP-MS (Thermo Fisher Scientific, Waltham, Mass., USA) equipped with an ESI SC-2 autosampler (Omaha, Nebr., USA). Each sample was acquired using 1 survey run (10 sweeps) and 3 main (peak jumping) runs (100 sweeps).

[2] = Relaxivity determination of free (unbound) contrast agents; assay type: physicochemical; conditions: 37° C.
Description: The relaxation rates and Gd(III) concentrations were determined for contrast agent solutions in a range of concentrations. The relaxation rates of small molecule contrast agents were investigated using a 4 mM starting solution in water and diluted 1:1 four times. […] Relaxation rates were determined using a 60 MHz (1.5 T) NMR analyzer (Bruker Minispec MQ60) at 37° C. using 500 μL in a 7.5 mm inner diameter NMR tubes. T1 relaxation times were determined using monoexponential curve fitting and an inversion recovery pulse sequence with four averages for each of 10 data points.

[3] = 1.5 T, 37 degrees C.; cited from earlier work
[4] = molecular target: HSA (Homo sapiens, UniProt P02768); conditions: 1.5 T, 37 degrees C.; cited from earlier work
Sequence of HSA (P02768 25-609): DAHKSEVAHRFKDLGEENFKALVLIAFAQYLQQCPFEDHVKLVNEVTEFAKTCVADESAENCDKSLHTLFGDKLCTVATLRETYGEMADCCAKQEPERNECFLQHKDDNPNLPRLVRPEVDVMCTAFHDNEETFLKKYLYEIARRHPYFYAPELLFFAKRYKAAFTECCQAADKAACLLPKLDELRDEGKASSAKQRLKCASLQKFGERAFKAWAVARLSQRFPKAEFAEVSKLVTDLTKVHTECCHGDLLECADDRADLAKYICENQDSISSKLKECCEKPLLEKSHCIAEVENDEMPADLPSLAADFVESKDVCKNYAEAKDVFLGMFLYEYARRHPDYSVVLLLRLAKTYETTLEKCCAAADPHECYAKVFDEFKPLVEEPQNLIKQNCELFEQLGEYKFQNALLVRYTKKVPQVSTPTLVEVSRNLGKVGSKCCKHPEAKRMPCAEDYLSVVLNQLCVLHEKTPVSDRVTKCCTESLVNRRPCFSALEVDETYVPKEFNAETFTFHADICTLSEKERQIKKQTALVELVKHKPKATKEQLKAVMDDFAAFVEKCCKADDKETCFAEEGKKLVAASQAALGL

## O=C([O-])CN1CCN(CCC(=O)NCCOCCOCCCCCCCl)CCN(CC(=O)[O-])CCN(CC(=O)[O-])CC1.[Gd+3] [2CHTGd]
[1]; 60 MHz (1.5 T), 10 mM MOPS
  r1 - PB (longitudinal relaxivity, protein-bound): 22.0 mM⁻¹ s⁻¹ and 22.0 ± 2.2 mM⁻¹ s⁻¹
[1]; 60 MHz
  r2 - PB (transverse relaxivity, protein-bound): 45.3 ± 5.5 mM⁻¹ s⁻¹
[1]; 400 MHz
  r1 - PB (longitudinal relaxivity, protein-bound): 5.1 ± 0.7 mM⁻¹ s⁻¹
  r2 - PB (transverse relaxivity, protein-bound): 56 ± 8 mM⁻¹ s⁻¹
[2]; 60 MHz
  r2 - F (transverse relaxivity, free): 3.9 ± 0.5 mM⁻¹ s⁻¹
[2]; 400 MHz
  r1 - F (longitudinal relaxivity, free): 3.3 ± 0.1 mM⁻¹ s⁻¹
  r2 - F (transverse relaxivity, free): 4.1 ± 0.1 mM⁻¹ s⁻¹

## O=C([O-])CN1CCN(CCCCC(=O)NCCOCCOCCCCCCCl)CCN(CC(=O)[O-])CCN(CC(=O)[O-])CC1.[Gd+3] [4CHTGd]
[1]; 60 MHz (1.5 T), 10 mM MOPS
  r1 - PB (longitudinal relaxivity, protein-bound): 8.6 ± 1.1 mM⁻¹ s⁻¹
[1]; 60 MHz
  r2 - PB (transverse relaxivity, protein-bound): 15.9 ± 2.3 mM⁻¹ s⁻¹
[1]; 400 MHz
  r1 - PB (longitudinal relaxivity, protein-bound): 3.3 ± 0.2 mM⁻¹ s⁻¹
  r2 - PB (transverse relaxivity, protein-bound): 19.6 ± 1.3 mM⁻¹ s⁻¹
[2]; 60 MHz
  r2 - F (transverse relaxivity, free): 6.5 ± 0.5 mM⁻¹ s⁻¹
[2]; 400 MHz
  r1 - F (longitudinal relaxivity, free): 5.6 ± 0.2 mM⁻¹ s⁻¹
  r2 - F (transverse relaxivity, free): 6.9 ± 0.2 mM⁻¹ s⁻¹

## O=C([O-])CN(CCN(CC(=O)[O-])C[C@H](COP(=O)([O-])OC1CCC(c2ccccc2)(c2ccccc2)CC1)N(CC(=O)[O-])CC(=O)[O-])CC(=O)[O-].[Gd+3].[H+].[H+].[H+] [MS-325]
[3]
  relaxivity, unbound: 5.5 mM⁻¹ s⁻¹
[4]
  relaxivity when bound to HSA: 25 mM⁻¹ s⁻¹

## O=C([O-])CN1CCN(CCCC(=O)NCCOCCOCCCCCCCl)CCN(CC(=O)[O-])CCN(CC(=O)[O-])CC1.[Gd+3] [3CHTGd]
[1]; 60 MHz (1.5 T), 10 mM MOPS
  r1 - PB (longitudinal relaxivity, protein-bound): 7.6 ± 0.7 mM⁻¹ s⁻¹
[1]; 60 MHz
  r2 - PB (transverse relaxivity, protein-bound): 13.1 ± 0.9 mM⁻¹ s⁻¹
[1]; 400 MHz
  r1 - PB (longitudinal relaxivity, protein-bound): 2.7 ± 0.1 mM⁻¹ s⁻¹
  r2 - PB (transverse relaxivity, protein-bound): 15.9 ± 0.1 mM⁻¹ s⁻¹
[2]; 60 MHz
  r2 - F (transverse relaxivity, free): 5.8 ± 0.1 mM⁻¹ s⁻¹
[2]; 400 MHz
  r1 - F (longitudinal relaxivity, free): 6.0 ± 0.2 mM⁻¹ s⁻¹
  r2 - F (transverse relaxivity, free): 4.9 ± 0.2 mM⁻¹ s⁻¹

## O=C([O-])CN1CCN(CC(=O)[O-])CCN(CC(=O)NCCOCCOCCCCCCCl)CCN(CC(=O)[O-])CC1.[Gd+3] [1CHTGd]
[1]; 60 MHz (1.5 T), 10 mM MOPS
  r1 - PB (longitudinal relaxivity, protein-bound): 13.4 ± 1.3 mM⁻¹ s⁻¹
[1]; 60 MHz
  r2 - PB (transverse relaxivity, protein-bound): 25.2 ± 2.6 mM⁻¹ s⁻¹
[1]; 400 MHz
  r1 - PB (longitudinal relaxivity, protein-bound): 4.0 ± 0.2 mM⁻¹ s⁻¹
  r2 - PB (transverse relaxivity, protein-bound): 28 ± 2 mM⁻¹ s⁻¹
[2]; 60 MHz
  r2 - F (transverse relaxivity, free): 4.1 ± 0.2 mM⁻¹ s⁻¹
[2]; 400 MHz
  r1 - F (longitudinal relaxivity, free): 3.2 ± 0.1 mM⁻¹ s⁻¹
  r2 - F (transverse relaxivity, free): 4.0 ± 0.1 mM⁻¹ s⁻¹
